Reference: ChEMBL document CHEMBL4350951, “Emerging and Re-Emerging Warheads for Targeted Covalent Inhibitors: Applications in Medicinal Chemistry and Chemical Biology” (J Med Chem, 2019)

How the values were obtained:
[1] = Half life in mouse at 20 mg/kg, ip; type: ADME, organism-based; details: in vivo
[2] = biological target: ALK tyrosine kinase receptor (Homo sapiens, UniProt Q9UM73)
Description: Inhibition of ALK (unknown origin) by TR-FRET assay

[3] = Half life of the compound at pH 7.5; type: physicochemical
[4] = Cysteine reactivity assessed as cysteine oxidation; type: physicochemical
[5] = Dissociation constant, pKa of the compound; type: physicochemical
[6] = system: Mycobacterium tuberculosis; assay: Inhibition of Mycobacterium tuberculosis ICL1 assessed as ratio of Kinact to Ki
[7] = biological target: T1, m7GpppX diphosphatase (Homo sapiens, UniProt Q96C86); assay: Inhibition of DcpS (unknown origin) using m7GpppA as substrate by ELISA
T1 sequence (Q96C86 whole entry): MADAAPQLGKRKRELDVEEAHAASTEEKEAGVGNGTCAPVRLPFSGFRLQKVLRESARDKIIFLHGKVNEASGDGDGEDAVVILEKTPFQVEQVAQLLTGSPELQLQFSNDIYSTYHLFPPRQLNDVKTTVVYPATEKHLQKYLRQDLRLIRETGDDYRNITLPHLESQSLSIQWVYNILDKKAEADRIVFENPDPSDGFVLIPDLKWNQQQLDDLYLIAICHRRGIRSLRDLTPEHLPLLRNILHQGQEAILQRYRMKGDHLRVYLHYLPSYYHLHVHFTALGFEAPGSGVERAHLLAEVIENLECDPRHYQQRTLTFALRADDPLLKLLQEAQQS

[8] = biological target: Glutathione S-transferase P (Homo sapiens) (UniProt P09211); assay: Inhibition of GSTP1 (unknown origin) assessed as ratio of Kinact to Ki by MS/MS analysis
[9] = biological target: Serine/threonine-protein kinase PLK1 (Homo sapiens, UniProt P53350); assay: Inhibition of PLK1 (unknown origin)
[10] = biological target: T2, Induced myeloid leukemia cell differentiation protein Mcl-1 (Homo sapiens, UniProt Q07820); assay: Binding kinetics to MCl-1 (unknown origin) assessed as dissociation rate constant for state one
[11] = biological target: T2, Induced myeloid leukemia cell differentiation protein Mcl-1; assay: Binding kinetics to MCl-1 (unknown origin) assessed as dissociation rate constant for state two
[12] = biological target: SRSF protein kinase 1 (Homo sapiens, UniProt Q96SB4); assay: Inhibition of SRPK1 (unknown origin) by TR-FRET assay
[13] = cells; details: Homo sapiens, MOLP-8
Description: Cytotoxicity against human MOLP8 cells

[14] = biological target: T3, Phosphatidylinositol 4,5-bisphosphate 3-kinase catalytic subunit delta isoform (Homo sapiens, UniProt O00329); assay: (§1) Inhibition of PI3Kdelta (unknown origin)
T3 sequence (O00329 whole entry): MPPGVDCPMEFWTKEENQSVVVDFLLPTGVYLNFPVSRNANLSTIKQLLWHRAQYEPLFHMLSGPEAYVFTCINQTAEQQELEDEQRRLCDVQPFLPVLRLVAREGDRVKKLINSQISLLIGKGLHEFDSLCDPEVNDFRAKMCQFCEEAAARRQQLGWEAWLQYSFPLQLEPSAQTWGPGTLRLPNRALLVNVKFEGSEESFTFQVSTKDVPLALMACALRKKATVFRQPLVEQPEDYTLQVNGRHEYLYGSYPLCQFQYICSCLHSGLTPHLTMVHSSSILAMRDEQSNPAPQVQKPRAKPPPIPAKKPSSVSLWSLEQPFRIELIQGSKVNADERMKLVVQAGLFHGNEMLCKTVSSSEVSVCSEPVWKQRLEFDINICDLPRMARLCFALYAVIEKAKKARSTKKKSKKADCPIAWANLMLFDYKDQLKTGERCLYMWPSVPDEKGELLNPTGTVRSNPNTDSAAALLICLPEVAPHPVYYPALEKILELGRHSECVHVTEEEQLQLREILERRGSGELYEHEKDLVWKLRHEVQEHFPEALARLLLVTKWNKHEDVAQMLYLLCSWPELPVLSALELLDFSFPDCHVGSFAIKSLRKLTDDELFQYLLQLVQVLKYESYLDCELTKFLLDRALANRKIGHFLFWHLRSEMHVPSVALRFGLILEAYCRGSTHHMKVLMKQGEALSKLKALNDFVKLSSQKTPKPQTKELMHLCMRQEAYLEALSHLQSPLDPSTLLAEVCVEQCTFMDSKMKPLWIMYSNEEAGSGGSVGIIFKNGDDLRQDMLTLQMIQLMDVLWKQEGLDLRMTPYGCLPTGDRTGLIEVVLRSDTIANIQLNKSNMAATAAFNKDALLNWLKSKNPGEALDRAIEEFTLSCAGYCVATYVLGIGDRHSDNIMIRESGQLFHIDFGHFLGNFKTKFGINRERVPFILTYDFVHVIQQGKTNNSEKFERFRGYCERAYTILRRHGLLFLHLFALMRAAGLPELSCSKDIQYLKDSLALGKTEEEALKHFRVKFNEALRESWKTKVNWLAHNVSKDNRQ

[15] = system: Hsp90 (human); assay: Inhibition of human Hsp90 by MS/MS analysis
[16] = system: Hsp90 (human); assay: Inhibition of human Hsp90 assessed as ratio of Kinact to Ki by MS/MS analysis
[17] = biological target: T4, Peptidyl-prolyl cis-trans isomerase FKBP1A (Homo sapiens, UniProt P62942); assay: Inhibition of recombinant human FKBP12 after 24 hrs by MS/MS analysis
[18] = Half life of the compound in aqueous buffer at pH 7.2; type: physicochemical
[19] = biological target: T4, Peptidyl-prolyl cis-trans isomerase FKBP1A; assay: Inhibition of recombinant human FKBP12 assessed as ratio of Kinact to Ki after 24 hrs by MS/MS analysis
[20] = biological target: T5, Phosphatidylinositol 4,5-bisphosphate 3-kinase catalytic subunit delta isoform (Homo sapiens) (UniProt O00329); assay: as §1
T5 sequence (whole entry): T3 sequence (O00329 whole entry)

[21] = Inhibition of PLK1 C675 mutant (unknown origin); parameters: species or system Homo sapiens
[22] = Half life in plasma (unknown origin); type: ADME, cell-free

T2 sequence (Q07820 whole entry): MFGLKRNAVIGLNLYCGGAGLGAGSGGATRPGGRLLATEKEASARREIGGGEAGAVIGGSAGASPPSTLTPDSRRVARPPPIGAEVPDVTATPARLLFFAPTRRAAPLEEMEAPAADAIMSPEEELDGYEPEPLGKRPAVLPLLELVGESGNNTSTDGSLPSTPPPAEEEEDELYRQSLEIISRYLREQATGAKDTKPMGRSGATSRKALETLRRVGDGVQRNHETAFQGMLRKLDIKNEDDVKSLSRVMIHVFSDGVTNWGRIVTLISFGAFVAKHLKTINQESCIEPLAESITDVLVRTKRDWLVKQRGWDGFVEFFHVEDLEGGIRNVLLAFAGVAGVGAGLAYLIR
T4 sequence (P62942 whole entry): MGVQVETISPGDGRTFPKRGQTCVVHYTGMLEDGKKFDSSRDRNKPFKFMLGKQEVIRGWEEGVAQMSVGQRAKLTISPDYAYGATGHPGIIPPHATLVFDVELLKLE
Chain of Serine/threonine-protein kinase PLK1 (P53350 whole entry): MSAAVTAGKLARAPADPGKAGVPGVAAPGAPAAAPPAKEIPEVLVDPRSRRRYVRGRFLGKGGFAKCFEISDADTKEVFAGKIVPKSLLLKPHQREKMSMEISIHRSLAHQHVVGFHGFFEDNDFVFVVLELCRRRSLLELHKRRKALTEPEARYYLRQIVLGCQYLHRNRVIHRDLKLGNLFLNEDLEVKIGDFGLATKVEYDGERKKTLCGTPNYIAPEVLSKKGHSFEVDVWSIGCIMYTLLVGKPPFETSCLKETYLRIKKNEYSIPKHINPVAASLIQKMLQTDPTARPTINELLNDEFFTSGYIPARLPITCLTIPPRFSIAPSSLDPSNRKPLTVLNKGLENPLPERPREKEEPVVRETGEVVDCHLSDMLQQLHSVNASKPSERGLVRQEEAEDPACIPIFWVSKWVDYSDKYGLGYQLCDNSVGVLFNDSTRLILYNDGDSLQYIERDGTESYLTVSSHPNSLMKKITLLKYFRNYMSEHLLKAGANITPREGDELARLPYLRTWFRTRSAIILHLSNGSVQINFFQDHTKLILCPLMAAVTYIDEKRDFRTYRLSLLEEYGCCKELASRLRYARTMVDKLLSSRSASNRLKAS
Chain of SRSF protein kinase 1 (Q96SB4 whole entry): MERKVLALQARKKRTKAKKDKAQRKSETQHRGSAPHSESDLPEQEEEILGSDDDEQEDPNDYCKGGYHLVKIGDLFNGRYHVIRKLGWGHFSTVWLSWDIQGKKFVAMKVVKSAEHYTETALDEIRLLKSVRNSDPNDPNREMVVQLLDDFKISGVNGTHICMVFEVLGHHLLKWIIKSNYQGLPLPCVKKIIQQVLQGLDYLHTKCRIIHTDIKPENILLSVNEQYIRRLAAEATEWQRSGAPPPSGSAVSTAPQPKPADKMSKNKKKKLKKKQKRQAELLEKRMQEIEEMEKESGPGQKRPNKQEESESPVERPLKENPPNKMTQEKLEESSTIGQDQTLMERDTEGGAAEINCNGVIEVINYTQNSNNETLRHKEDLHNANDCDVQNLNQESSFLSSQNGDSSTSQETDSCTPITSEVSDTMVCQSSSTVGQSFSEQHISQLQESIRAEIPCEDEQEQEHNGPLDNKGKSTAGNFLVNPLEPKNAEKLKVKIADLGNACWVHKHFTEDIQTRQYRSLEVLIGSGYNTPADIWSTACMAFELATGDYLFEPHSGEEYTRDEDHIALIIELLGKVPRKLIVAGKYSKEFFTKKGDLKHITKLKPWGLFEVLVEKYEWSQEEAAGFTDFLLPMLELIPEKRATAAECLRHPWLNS
Chain of Glutathione S-transferase P (Homo sapiens) (P09211 2-210 limits assumed): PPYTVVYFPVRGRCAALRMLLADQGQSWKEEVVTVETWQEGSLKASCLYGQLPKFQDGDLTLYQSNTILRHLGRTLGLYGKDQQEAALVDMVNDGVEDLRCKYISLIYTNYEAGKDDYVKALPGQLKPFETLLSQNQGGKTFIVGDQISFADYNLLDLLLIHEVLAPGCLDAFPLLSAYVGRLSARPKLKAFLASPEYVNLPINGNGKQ
Chain of ALK tyrosine kinase receptor (Q9UM73 whole entry): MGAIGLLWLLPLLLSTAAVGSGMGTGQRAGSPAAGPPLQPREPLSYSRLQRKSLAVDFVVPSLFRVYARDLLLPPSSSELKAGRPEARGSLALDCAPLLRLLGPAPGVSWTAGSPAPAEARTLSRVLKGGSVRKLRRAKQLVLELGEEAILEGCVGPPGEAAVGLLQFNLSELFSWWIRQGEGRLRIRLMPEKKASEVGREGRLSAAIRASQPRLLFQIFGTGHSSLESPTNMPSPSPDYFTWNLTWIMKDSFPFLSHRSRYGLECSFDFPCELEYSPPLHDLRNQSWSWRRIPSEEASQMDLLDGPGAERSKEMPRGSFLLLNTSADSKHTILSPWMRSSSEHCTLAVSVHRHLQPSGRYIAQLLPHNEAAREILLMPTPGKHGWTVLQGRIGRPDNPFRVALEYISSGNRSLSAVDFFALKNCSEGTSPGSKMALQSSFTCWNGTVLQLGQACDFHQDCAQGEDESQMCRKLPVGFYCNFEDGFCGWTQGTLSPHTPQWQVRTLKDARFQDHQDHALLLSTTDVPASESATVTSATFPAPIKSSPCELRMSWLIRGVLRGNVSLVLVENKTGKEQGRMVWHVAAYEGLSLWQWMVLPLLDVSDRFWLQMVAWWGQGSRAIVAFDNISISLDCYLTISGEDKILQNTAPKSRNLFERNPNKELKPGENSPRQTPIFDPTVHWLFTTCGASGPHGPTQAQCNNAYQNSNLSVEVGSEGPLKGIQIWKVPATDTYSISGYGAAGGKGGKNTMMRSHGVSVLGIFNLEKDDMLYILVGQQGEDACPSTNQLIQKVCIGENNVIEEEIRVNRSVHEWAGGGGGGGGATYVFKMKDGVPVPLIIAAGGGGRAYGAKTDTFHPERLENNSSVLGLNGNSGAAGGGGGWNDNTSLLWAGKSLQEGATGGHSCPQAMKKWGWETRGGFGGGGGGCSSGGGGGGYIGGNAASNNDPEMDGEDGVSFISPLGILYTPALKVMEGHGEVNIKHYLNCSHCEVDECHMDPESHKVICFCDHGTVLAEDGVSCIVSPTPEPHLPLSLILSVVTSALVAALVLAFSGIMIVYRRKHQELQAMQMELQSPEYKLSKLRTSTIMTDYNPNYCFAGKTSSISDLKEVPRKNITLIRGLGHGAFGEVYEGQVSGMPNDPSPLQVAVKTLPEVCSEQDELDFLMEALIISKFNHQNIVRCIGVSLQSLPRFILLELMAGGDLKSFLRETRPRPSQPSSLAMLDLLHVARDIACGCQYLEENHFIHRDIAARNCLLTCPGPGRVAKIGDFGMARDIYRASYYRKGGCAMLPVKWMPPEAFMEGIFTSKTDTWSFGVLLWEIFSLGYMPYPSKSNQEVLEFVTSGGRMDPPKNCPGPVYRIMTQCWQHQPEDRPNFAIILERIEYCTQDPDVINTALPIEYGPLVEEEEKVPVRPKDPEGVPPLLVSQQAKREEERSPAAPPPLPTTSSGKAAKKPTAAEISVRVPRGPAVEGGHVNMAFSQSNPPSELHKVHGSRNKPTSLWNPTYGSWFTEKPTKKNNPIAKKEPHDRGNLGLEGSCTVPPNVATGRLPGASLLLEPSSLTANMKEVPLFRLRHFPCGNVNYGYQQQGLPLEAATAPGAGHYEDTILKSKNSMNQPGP

Structure (SMILES): C#Cc1cccc(Oc2ccc(-c3nn([C@@H]4CCCN(C(=O)/C=C/C(=O)O)C4)c4ncnc(N)c34)cc2)c1
- half-life [1]: 129 min

Structure (SMILES): CCc1cc2c(cc1-c1cccc(S(=O)(=O)F)c1)C(C)(C)c1[nH]c3cc(C#N)ccc3c1C2=O
- IC50 [2]: 11 nM

Structure (SMILES): O=S(=O)(F)c1ccccc1
- half-life [3]: 5 to 15 min

Structure (SMILES): C#Cc1cccc(Oc2ccc(-c3nn([C@@H]4CCCN(C(=O)/C=C/C(=O)OC)C4)c4ncnc(N)c34)cc2)c1
- half-life [1]: < 2 min

Structure (SMILES): C#CCCCN1CCC(=O)CC1=O
- K [4]: 1155 M⁻¹ s⁻¹

Structure (SMILES): O=C1CCCC(=O)C1
- K [4]: 0.4 min⁻¹

Structure (SMILES): O=C(O)CC=[N+]([O-])[O-]
- pKa [5]: 9
- Ratio [6]: 2.6 ×10⁴ /M/s

Structure (SMILES): Nc1nc(N)c2c(OCc3ccc(S(=O)(=O)F)cc3)cccc2n1
- IC50 [7]: < 0.02 nM

Structure (SMILES): C#CCCCN1CS(=O)(=O)CC1=O
- K [4]: 20 M⁻¹ s⁻¹

Structure (SMILES): CC(=O)CC(C)=O
- K [4]: 3.8 min⁻¹

Structure (SMILES): O=C1CC(=O)NC(=O)N1 [BARBITURIC ACID]
- K [4]: 0.2 min⁻¹

Structure (SMILES): C[C@@H]1CCN(C(=O)CC#N)C[C@@H]1N(C)c1ncnc2[nH]ccc12 [TOFACITINIB]
- K [4]: 0.4 min⁻¹

Structure (SMILES): CS(=O)(=O)CC#N
- K [4]: 28.6 min⁻¹

Structure (SMILES): C#CCCCN(c1nc(Cl)nc(Cl)n1)[C@@H](CC(C)C)C(=O)OC
- Ratio [8]: 3.12 M⁻¹ s⁻¹

Structure (SMILES): NC(=O)c1sc2c([n+]1[O-])C(SC[C@H](N)C(=O)O)C(SC(F)(F)F)=CC2[N+](=O)[O-] (stereo partly drawn)
- IC50 [9]: 400 nM

Structure (SMILES): O=C1CS(=O)(=O)Cc2ccccc21
- K [4]: 54.9 min⁻¹

Structure (SMILES): CC(=O)CS(=O)(=O)c1ccccc1
- K [4]: 8.7 min⁻¹

Structure (SMILES): Cc1c(-c2cccc3c(CCCOc4cccc5ccccc45)c(C(=O)O)[nH]c23)c(COc2ccc(B(O)O)c(C=O)c2)nn1C
- koff [10]: 0.14 s⁻¹
- koff [11]: 0.018 s⁻¹

Structure (SMILES): CCc1cc2c(cc1N1CCC(N3CCOCC3)CC1)C(C)(C)c1[nH]c3cc(C#N)ccc3c1C2=O [ALECTINIB]
- IC50 [12]: 11 nM

Structure (SMILES): C#Cc1cccc(Oc2ccc(-c3nn([C@@H]4CCCN(C(=O)C=C)C4)c4ncnc(N)c34)cc2)c1
- half-life [1]: 168 min

Structure (SMILES): O=C1CCC(=O)C1
- K [4]: 0.02 min⁻¹

Structure (SMILES): C#CCCCC1CCC(=O)CC1=O (stereo not drawn)
- K [4]: 10 M⁻¹ s⁻¹

Structure (SMILES): Cc1c(-c2cccc3c(CCCOc4cccc5ccccc45)c(C(=O)O)n(C)c23)c(COc2ccc(B(O)O)c(C=O)c2)nn1C
- EC50 [13]: 75 nM
- koff [10]: 0.13 s⁻¹
- koff [11]: 0.01 s⁻¹

Structure (SMILES): O=C1CCN(Cc2ccccc2)C(=O)C1
- K [4]: 86.4 min⁻¹

Structure (SMILES): COc1ncc(-c2cc(-c3ncc(CN4CCN(C(C)C)CC4)o3)c3cn[nH]c3c2)cc1C(=O)Oc1ccc(C)cc1C
- Ki [14]: 7.8 µM

Structure (SMILES): O=C1CS(=O)(=O)N(Cc2ccccc2)c2ccccc21
- K [4]: 190.5 min⁻¹

Structure (SMILES): N#CCN(C(=O)CCCC(=O)NCCCn1c(Sc2cc3c(cc2I)OCO3)nc2c(N)ncnc21)S(=O)(=O)c1ccccc1
- Ki [15]: 62 nM
- Ratio [16]: 2.9 ×10⁴ /M/s

Structure (SMILES): CCC(C)(C)C(=O)C(=O)N1CCCC[C@H]1C(=O)O[C@H](CCc1ccc(OC)c(OC)c1)c1cccc(OCC(=O)NCCCCCNC(=O)c2ccc(S(=O)(=O)N(CC#N)C(=O)CCCC[C@@H]3SC[C@@H]4NC(=O)N[C@@H]43)cc2)c1
- Ki [17]: 210 nM
- Kinact [17]: 6.1 ×10⁻³ /s
- half-life [18]: 2580 min
- Ratio [19]: 2.9 ×10⁴ /M/s

Structure (SMILES): COc1ncc(-c2cc(-c3ncc(CN4CCN(C(C)C)CC4)o3)c3cn[nH]c3c2)cc1C(=O)Oc1ccc([N+](=O)[O-])cc1
- IC50 [14]: 0.617 nM
- Ki [14]: 0.04 µM
- Kinact [20]: 0.0055 s⁻¹

Structure (SMILES): NC(=O)c1sc2c([n+]1[O-])C(SC[C@H](N)C(=O)O)C(C(F)(F)F)=CC2[N+](=O)[O-] (stereo partly drawn)
- IC50 [21]: > 100 µM
- IC50 [9]: 2500 nM

Structure (SMILES): O=C1CC(=O)c2ccccc21
- K [4]: 22.9 min⁻¹

Structure (SMILES): O=[N+]([O-])CS(=O)(=O)c1ccccc1
- K [4]: 7.8 min⁻¹

Structure (SMILES): CN(C)c1ccc(S(=O)(=O)F)cc1
- half-life [22]: 1510 min

Structure (SMILES): C#CCCCN1c2ccccc2C(=O)CS1(=O)=O
- K [4]: 1700 M⁻¹ s⁻¹

Structure (SMILES): C#CCCCN1CC(=O)CC1=O
- K [4]: 330 M⁻¹ s⁻¹

Structure (SMILES): N#CCS(=O)(=O)c1ccccc1
- K [4]: 78 min⁻¹

Structure (SMILES): C#Cc1cccc(Oc2ccc(-c3nn([C@@H]4CCCN(C(=O)/C=C/C(=O)OC(C)C)C4)c4ncnc(N)c34)cc2)c1
- half-life [1]: < 2 min
